Results on 27 compounds are retold here after patent US10253015B2, “Pyridinyl quinolinone derivatives as mutant-isocitrate dehydrogenase inhibitors” (FORMA TM2, Inc., priority 2014, dated 2019).

Where only a bound is given, the exact number is not on record here.

Broadly, the IC50 is the concentration needed to halve the response being measured.

Experiment [1] addresses IDH1-R132C recombinant protein (Homo sapiens (Human), UniProt O75874, R132C). Briefly: IDH1-R132C enzymatic assay. The class given is biochemical. The conditions noted are these: inhibition of NADPH consumption, diaphorase/resazurin readout; read-out: Enzyme IDH1 R132C Range IC50. Here is the method: (§1) Assays were performed in a 384-well black plate. […] After the plate was centrifuged briefly, an aliquot of 10 μL of 2 mM α-ketoglutarate and 20 μM NADPH solution prepared in assay buffer was then added to each well and the reaction was maintained at 25° C. for 45 minutes. An aliquot of 10 μL of diaphorase solution (0.15 U/mL diaphorase and 30 μM Resazurin in assay buffer) was added to each well. […] The IC50 of a given compound was calculated by fitting the dose response curve of inhibition of NADPH consumption at a given concentration with the four parameter logistic equation.
On the technique in general: Alamar Blue is a resazurin reagent that responds to reducing activity.

The target in experiment [2] is IDH1-R132H recombinant protein (Homo sapiens (Human), UniProt O75874, R132H). The experiment in a line: IDH1-R132H enzymatic assay. The class given is biochemical. To be noted: inhibition of NADPH consumption, diaphorase/resazurin readout; read-out: Enzyme IDH1 R132H Range IC50. Here is the method: as §1
IDH1-R132H recombinant protein, sequence (O75874 whole entry R132H): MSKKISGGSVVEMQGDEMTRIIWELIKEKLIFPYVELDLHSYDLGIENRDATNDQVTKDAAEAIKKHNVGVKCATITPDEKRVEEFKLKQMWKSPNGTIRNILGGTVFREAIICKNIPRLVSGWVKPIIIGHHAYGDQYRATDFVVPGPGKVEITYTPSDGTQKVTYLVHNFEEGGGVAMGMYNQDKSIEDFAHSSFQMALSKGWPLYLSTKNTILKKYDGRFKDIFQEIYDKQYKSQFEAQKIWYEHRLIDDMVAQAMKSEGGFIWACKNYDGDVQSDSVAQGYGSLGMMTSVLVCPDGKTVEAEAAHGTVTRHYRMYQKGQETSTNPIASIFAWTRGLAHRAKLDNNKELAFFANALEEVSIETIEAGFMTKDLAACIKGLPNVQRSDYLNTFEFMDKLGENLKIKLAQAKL

IDH1-R132C recombinant protein, sequence (O75874 whole entry R132C): as the sequence (O75874 whole entry R132H) above, with H132C counted along it

Regarding `COc1cc(N[C@@H](C)c2cc3cc(Cl)ccc3n(C)c2=O)ncc1C#N` [Compound I-2, 6-{[(1S)-1-(6-chloro-1-methyl-2-oxo-1,2-dihydroquinolin-3-yl)ethyl]amino}-4-methoxypyridine-3-carbonitrile], the IC50 in experiment [1] and in experiment [2] was 1000 to 10000 nM in each case.
As for `C[C@H](Nc1cc(N2CCOC2=O)ccn1)c1cc2cc(Cl)ccc2[nH]c1=O` [Compound I-10, 6-chloro-3-[(1S)-1-{[4-(2-oxo-1,3-oxazolidin-3-yl)pyridin-2-yl]amino}ethyl]-1,2-dihydroquinolin-2-one], the values for the IC50 in experiment [1] and in experiment [2] were 1000 to 10000 nM and less than 100 nM, respectively.
`C[C@H](Nc1cc(N2C(=O)OCC2(C)C)ccn1)c1cc2cc(Cl)ccc2[nH]c1=O` [Compound I-13, 6-chloro-3-[(1S)-1-{[4-(4,4-dimethyl-2-oxo-1,3-oxazolidin-3-yl)pyridin-2-yl]amino}ethyl]-1,2-dihydroquinolin-2-one]: the values for the IC50 in experiment [1] and in experiment [2] were 1000 to 10000 nM and 100 to 1000 nM, respectively.
As to `CC(Nc1cc(N2C(=O)OC[C@@H]2C(C)C)ccn1)c1cc2cc(Cl)ccc2[nH]c1=O` (stereo partly drawn) [Compound I-18, 6-chloro-3-[1-({4-[(4S)-2-oxo-4-(propan-2-yl)-1,3-oxazolidin-3-yl]pyridin-2-yl}amino)ethyl]-1,2-dihydroquinolin-2-one], the IC50 in experiment [1] lay in the range of 1000 to 10000 nM; in experiment [2], 100 to 1000 nM.
As for `CC(C)[C@H]1COC(=O)N1c1cccc(N[C@@H](C)c2cc3cc(Cl)ccc3[nH]c2=O)n1` [Compound I-19, 6-chloro-3-[(1S)-1-({6-[(4S)-2-oxo-4-(propan-2-yl)-1,3-oxazolidin-3-yl]pyridin-2-yl}amino)ethyl]-1,2-dihydroquinolin-2-one], the values for the IC50 in experiment [1] and in experiment [2] were 1000 to 10000 nM and 100 to 1000 nM, respectively.
`CC(=O)Nc1ccnc(N[C@@H](C)c2cc3cc(Cl)ccc3[nH]c2=O)c1F` [Compound I-34, N-(2-{[(1S)-1-(6-chloro-2-oxo-1,2-dihydroquinolin-3-yl)ethyl]amino}-3-fluoropyridin-4-yl)acetamide]: the figures for the IC50 in experiment [1] and in experiment [2] were 100 to 1000 nM and less than 100 nM, respectively.
With `C[C@H](Nc1nccc(NCCO)c1F)c1cc2cc(Cl)ccc2[nH]c1=O` [Compound I-36, 6-chloro-3-[(1S)-1-({3-fluoro-4-[(2-hydroxyethyl)amino]pyridin-2-yl}amino)ethyl]-1,2-dihydroquinolin-2-one], the IC50 in experiment [1] is greater than 10000 nM; in experiment [2], 1000 to 10000 nM.
On to `Cc1cc(-c2ccnc(N[C@@H](C)c3cc4cc(Cl)ccc4[nH]c3=O)c2)n(C)n1` [Compound I-39, 6-chloro-3-[(1S)-1-{[4-(1,3-dimethyl-1H-pyrazol-5-yl)pyridin-2-yl]amino}ethyl]-1,2-dihydroquinolin-2-one], for which the figures for the IC50 in experiment [1] and in experiment [2] were 100 to 1000 nM and 1000 to 10000 nM, respectively.
As to `C[C@H](Nc1cc(-c2ccn[nH]2)ccn1)c1cc2cc(Cl)ccc2[nH]c1=O` [Compound I-41, 6-chloro-3-[(1S)-1-{[4-(1H-pyrazol-5-yl)pyridin-2-yl]amino}ethyl]-1,2-dihydroquinolin-2-one], the IC50 in experiment [1] and in experiment [2] was 1000 to 10000 nM throughout.
On to `CC(C)Cn1nccc1-c1ccnc(N[C@@H](C)c2cc3cc(Cl)ccc3[nH]c2=O)c1` [Compound I-43, 6-chloro-3-[(1S)-1-({4-[1-(2-methylpropyl)-1H-pyrazol-5-yl]pyridin-2-yl}amino)ethyl]-1,2-dihydroquinolin-2-one], for which the half-inhibitory concentration (IC50) in experiment [1] and in experiment [2] was 1000 to 10000 nM each time.
With `CC(C)n1nccc1-c1ccnc(N[C@@H](C)c2cc3cc(Cl)ccc3[nH]c2=O)c1` [Compound I-44, 6-chloro-3-[(1S)-1-({4-[1-(propan-2-yl)-1H-pyrazol-5-yl]pyridin-2-yl}amino)ethyl]-1,2-dihydroquinolin-2-one], the IC50 in experiment [1] and in experiment [2] was 1000 to 10000 nM in each case.
As to `C[C@H](Nc1cc(-c2ccnn2C2CCCCO2)ccn1)c1cc2cc(Cl)ccc2[nH]c1=O` (stereo partly drawn) [Compound I-47, 6-chloro-3-[(1S)-1-({4-[1-(oxan-2-yl)-1H-pyrazol-5-yl]pyridin-2-yl}amino)ethyl]-1,2-dihydroquinolin-2-one], the IC50 in experiment [1] and in experiment [2] was 1000 to 10000 nM each time.
Take `Cc1cscc1-c1ccnc(N[C@@H](C)c2cc3cc(Cl)ccc3[nH]c2=O)c1` [Compound I-48, 6-chloro-3-[(1S)-1-{[4-(4-methylthiophen-3-yl)pyridin-2-yl]amino}ethyl]-1,2-dihydroquinolin-2-one]: the IC50 in experiment [1] and in experiment [2] was 1000 to 10000 nM each time.
Regarding `C[C@H](Nc1cc(-c2ccnn2C)ccn1)c1cc2cc(Cl)ccc2[nH]c1=O` [Compound I-49, 6-chloro-3-[(1S)-1-{[4-(1-methyl-1H-pyrazol-5-yl)pyridin-2-yl]amino}ethyl]-1,2-dihydroquinolin-2-one], the IC50 in experiment [1] and in experiment [2] was 1000 to 10000 nM each time.
As to `C[C@H](Nc1cc(-c2c[nH]nc2C(F)(F)F)ccn1)c1cc2cc(Cl)ccc2[nH]c1=O` [Compound I-50, 6-chloro-3-[(1S)-1-({4-[3-(trifluoromethyl)-1H-pyrazol-4-yl]pyridin-2-yl}amino)ethyl]-1,2-dihydroquinolin-2-one], the IC50 in experiment [1] is greater than 10000 nM; in experiment [2], 1000 to 10000 nM.
Take `Cc1cc(-c2ccnc(N[C@@H](C)c3cc4cc(Cl)ccc4[nH]c3=O)c2F)n(C)n1` [Compound I-52, 6-chloro-3-[(1S)-1-{[4-(1,3-dimethyl-1H-pyrazol-5-yl)-3-fluoropyridin-2-yl]amino}ethyl]-1,2-dihydroquinolin-2-one]: the IC50 in experiment [1] was greater than 10000 nM; in experiment [2] it was 1000 to 10000 nM.
Regarding `C[C@H](Nc1nccc(-c2ccnn2C)c1F)c1cc2cc(Cl)ccc2[nH]c1=O` [Compound I-53, 6-chloro-3-[(1S)-1-{[3-fluoro-4-(1-methyl-1H-pyrazol-5-yl)pyridin-2-yl]amino}ethyl]-1,2-dihydroquinolin-2-one], the half-inhibitory concentration (IC50) is greater than 10000 nM in experiment [1] and 1000 to 10000 nM in experiment [2].
As for `CC(C)Cn1nccc1-c1ccnc(N[C@@H](C)c2cc3cc(Cl)ccc3[nH]c2=O)c1F` [Compound I-56, 6-chloro-3-[(1S)-1-({3-fluoro-4-[1-(2-methylpropyl)-1H-pyrazol-5-yl]pyridin-2-yl}amino)ethyl]-1,2-dihydroquinolin-2-one], the IC50 in experiment [1] and in experiment [2] was greater than 10000 nM each time.
Take `Cc1cc(NCc2cc3cc(Cl)ccc3[nH]c2=O)ncc1C#N` [Compound I-59, 6-{[(6-chloro-2-oxo-1,2-dihydroquinolin-3-yl)methyl]amino}-4-methylpyridine-3-carbonitrile]: the IC50 was 1000 to 10000 nM in experiment [1] and 100 to 1000 nM in experiment [2].
With `N#Cc1ccc(NCc2cc3cc(Cl)ccc3[nH]c2=O)nc1` [Compound I-67, 6-{[(6-chloro-2-oxo-1,2-dihydroquinolin-3-yl)methyl]amino}pyridine-3-carbonitrile], the IC50 was greater than 10000 nM in experiment [1] and 100 to 1000 nM in experiment [2].
On to `N#Cc1ccc(NCc2cc3cc(Cl)ccc3[nH]c2=O)cn1` [Compound I-78, 5-{[(6-chloro-2-oxo-1,2-dihydroquinolin-3-yl)methyl]amino}pyridine-2-carbonitrile], for which the IC50 in experiment [2] is greater than 10000 nM.
On to `O=c1[nH]c2ccc(Cl)cc2cc1CNc1cc(C(F)(F)F)ccn1` [Compound I-79, 6-chloro-3-({[4-(trifluoromethyl)pyridin-2-yl]amino}methyl)-1,2-dihydroquinolin-2-one], for which, in experiment [2], the IC50 was greater than 10000 nM.
In the case of `Cc1cc2cc(CNc3ccc(C#N)cn3)c(=O)[nH]c2cc1C` [Compound I-80, 6-{[(6,7-dimethyl-2-oxo-1,2-dihydroquinolin-3-yl)methyl]amino}pyridine-3-carbonitrile], the IC50 in experiment [2] was 100 to 1000 nM.
Turning to `COc1ccc2[nH]c(=O)c(CNc3ccc(C#N)cn3)cc2c1` [Compound I-81, 6-{[(6-methoxy-2-oxo-1,2-dihydroquinolin-3-yl)methyl]amino}pyridine-3-carbonitrile], in experiment [2], the IC50 lay within 1000 to 10000 nM.
For the compound `COc1ccc2[nH]c(=O)c(CNc3cc(C)ccn3)cc2c1` [Compound I-82, 6-methoxy-3-{[(4-methylpyridin-2-yl)amino]methyl}-1,2-dihydroquinolin-2-one], in experiment [2], the IC50 was greater than 10000 nM.
On the same count and under the same terms, the value for `Cc1nc(NCc2cc3cc(Cl)c(OCc4ccccn4)cc3[nH]c2=O)ccc1C#N` [Compound I-84, 6-({[6-chloro-2-oxo-7-(pyridin-2-ylmethoxy)-1,2-dihydroquinolin-3-yl]methyl}amino)-2-methylpyridine-3-carbonitrile] was 100 to 1000 nM.
Take `Cc1nc(NCc2cc3cc(Cl)c(OCCN4CCN(S(C)(=O)=O)CC4)cc3[nH]c2=O)ccc1C#N` [Compound I-85, 6-[({6-chloro-7-[2-(4-methanesulfonylpiperazin-1-yl)ethoxy]-2-oxo-1,2-dihydroquinolin-3-yl}methyl)amino]-2-methylpyridine-3-carbonitrile]: the IC50 in experiment [1] was 100 to 1000 nM; in experiment [2], less than 100 nM.
